From ChEMBL document CHEMBL1201862, “PubChem BioAssay data set” (2004)
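In this assay, cells in 96-well plates receive the compound at five concentrations for 48 hours. Endpoints are linearly interpolated between the surrounding concentrations. GI50 = concentration required for 50% inhibition of growth.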 Calls of active or inactive are those of the source. Rule as the data show it: active = GI50 up to about 1.1 µM and inactive = higher.

Columns and labels:
Experiment in all cases: inhibition of tumour cell growth, NCI panel, 48 h
A549 = system: A549
ACHN = system: ACHN
DLD-1 = system: DLD-1
HCT-116 = system: HCT-116
HL-60 = system: HL-60
HOP-62 = system: HOP-62
HT-29 = system: HT-29
IGROV-1 = system: IGROV-1
K562 = system: K562
NCI-H460 = system: NCI-H460
OVCAR-4 = system: OVCAR-4
RPMI-8226 = system: RPMI-8226
SF-295 = system: SF-295
SF-539 = system: SF-539
SK-MEL-28 = system: SK-MEL-28
SN12C = system: SN12C
UACC-257 = system: UACC-257
UO-31 = system: UO-31
BT-549 = system: BT-549
PC-3 = system: PC-3

Compound	GI50 (A549)	GI50 (ACHN)	GI50 (DLD-1)	GI50 (HCT-116)	GI50 (HL-60)	GI50 (HOP-62)	GI50 (HT-29)	GI50 (IGROV-1)	GI50 (K562)	GI50 (NCI-H460)	GI50 (OVCAR-4)	GI50 (RPMI-8226)	GI50 (SF-295)	GI50 (SF-539)	GI50 (SK-MEL-28)	GI50 (SN12C)	GI50 (UACC-257)	GI50 (UO-31)	GI50 (BT-549)	GI50 (PC-3)
NNC(=O)C(=O)N/N=C1/CCCC1C(=O)CCC(=O)Nc1ccc(Cl)cc1 (stereo not given)	> 100 µM (inactive)	15.3 µM (inactive)	> 100 µM (inactive)	> 100 µM (inactive)	> 100 µM (inactive)	> 100 µM (inactive)	> 100 µM (inactive)	> 100 µM (inactive)	12.1 µM (inactive)	> 100 µM (inactive)	> 100 µM (inactive)	> 100 µM (inactive)	> 100 µM (inactive)	> 100 µM (inactive)	> 100 µM (inactive)	> 100 µM (inactive)	> 100 µM (inactive)	> 100 µM (inactive)		
COc1ccc(-c2oc(/C=N/c3ccccc3)c([N+](=O)[O-])c2-c2ccc(OC)c(OC)c2)cc1OC	> 100 µM (inactive)	> 100 µM (inactive)	> 100 µM (inactive)	> 100 µM (inactive)	> 100 µM (inactive)	> 100 µM (inactive)	> 100 µM (inactive)	> 100 µM (inactive)	> 100 µM (inactive)	> 100 µM (inactive)	> 100 µM (inactive)	> 100 µM (inactive)	> 100 µM (inactive)	> 100 µM (inactive)	> 100 µM (inactive)	> 100 µM (inactive)	> 100 µM (inactive)	> 100 µM (inactive)		
[O-][S+](c1ccc(O)cc1)c1ccc(O)cc1	> 100 µM (inactive)		> 100 µM (inactive)	> 100 µM (inactive)	> 100 µM (inactive)	> 100 µM (inactive)	> 100 µM (inactive)	> 100 µM (inactive)	> 100 µM (inactive)	> 100 µM (inactive)	> 100 µM (inactive)	> 100 µM (inactive)	> 100 µM (inactive)	> 100 µM (inactive)	> 100 µM (inactive)		> 100 µM (inactive)	> 100 µM (inactive)		
O=C(CN1CCN(c2ccccc2)CC1)N1CCc2c([nH]c3ccccc23)C1c1cccnc1 (stereo not given)	31.6 µM (inactive)	51.8 µM (inactive)	> 53 µM (inactive)	14.5 µM (inactive)	30.9 µM (inactive)	34.1 µM (inactive)	> 53.5 µM (inactive)	> 100 µM (inactive)	> 76.4 µM (inactive)	36.9 µM (inactive)	> 29.4 µM (inactive)	> 100 µM (inactive)	23.7 µM (inactive)	16.7 µM (inactive)	> 95.3 µM (inactive)	> 82.6 µM (inactive)	> 100 µM (inactive)	> 58.3 µM (inactive)		
OC1[C@H]([C@H]2CCCC[C@@H]2O)CCC[C@@H]1[C@@H]1CCCC[C@H]1O (stereo not given in full)	> 100 µM (inactive)	> 100 µM (inactive)	> 100 µM (inactive)	> 100 µM (inactive)	> 100 µM (inactive)	> 100 µM (inactive)	> 100 µM (inactive)	> 100 µM (inactive)	> 100 µM (inactive)	> 100 µM (inactive)	> 100 µM (inactive)	> 100 µM (inactive)	> 100 µM (inactive)	> 100 µM (inactive)	> 100 µM (inactive)	> 100 µM (inactive)	> 100 µM (inactive)	> 100 µM (inactive)		
CCCCCCCCCC(=O)N[C@H]1CCc2cc(OC)c(OC)c(OC)c2-c2ccc(SC)c(=O)cc21	0.0376 µM (active)	0.0507 µM (active)	0.0352 µM (active)	0.0209 µM (active)	0.034 µM (active)	0.0478 µM (active)	0.0261 µM (active)	0.0387 µM (active)	0.0395 µM (active)	0.0347 µM (active)	0.408 µM (active)	0.0422 µM (active)	0.0274 µM (active)	0.0224 µM (active)		0.0365 µM (active)	0.0417 µM (active)	0.231 µM (active)		
Oc1cc(-c2cccc(Cl)c2)nc2cc3c(cc12)OCO3	2.47 µM (inactive)	0.402 µM (active)	0.245 µM (active)		0.157 µM (active)	0.379 µM (active)	2 µM (inactive)	0.151 µM (active)		0.274 µM (active)	> 75 µM (inactive)	0.498 µM (active)		0.257 µM (active)		0.912 µM (active)	0.366 µM (active)	0.33 µM (active)	284 nM (active)	308 nM (active)
CC(=O)O[C@@]12CO[C@@H]1C[C@H](O)[C@@]1(C)C(=O)[C@H](O)C3=C(C)[C@@H](OC(=O)[C@H](O)[C@@H](NC(=O)OC(C)(C)C)c4ccccc4)C[C@@](O)([C@@H](OC(=O)c4ccccc4)[C@H]21)C3(C)C [DOCETAXEL]	< 0.01 µM (active)	0.59 µM (active)	< 0.01 µM (active)	< 0.01 µM (active)	< 0.0631 µM (active)	< 0.01 µM (active)	< 0.01 µM (active)	< 0.01 µM (active)	< 0.01 µM (active)	0.00291 µM (active)	21.8 µM (inactive)	< 0.01 µM (active)	0.0107 µM (active)	< 0.01 µM (active)		< 0.01 µM (active)	0.455 µM (active)	0.885 µM (active)	3.42 nM (active)	5.78 nM (active)
